In patent US8476197B2, “Aminopropenoates as fungicides” (priority 2009, dated 2013):
Like-named read-outs stand apart in the source and are kept apart here. Marks after values point to notes of the source that are not given here.

| Compound | Log P (pH 2.7) | Log P (pH 7.5) |
| --- | --- | --- |
| CC(C)C(C)NC(=C(C#N)C(=O)N1CCOCC1)c1cn(C)nc1C(F)F (stereo not drawn) [Compound 1326] | 2.43^[a] | – |
| CC(NC(=C(C#N)C(=O)N1CCOCC1)c1cn(C)nc1C(F)F)c1nccs1 (stereo not drawn) [Compound 1327] | 1.79^[a] | – |
| CC(NC(=C(C#N)C(=O)N1CCOCC1)c1cn(C)nc1C(F)F)c1ccccn1 (stereo not drawn) [Compound 1328] | 1.63^[a] | – |
| CCNC(=O)C(C#N)=C(NC(C)c1ccccn1)c1ccnc(Cl)c1F (stereo not drawn) [Compound 1329] | 2.5^[a] | – |
| CCOC(=O)C(C#N)=C(NC(C)c1nccs1)c1ccnc(Br)c1F (stereo not drawn) [Compound 1330] | 3^[a] | – |
| CCOC(=O)C(C#N)=C(NC(C)c1nccs1)c1ccnc(SC)c1Cl (stereo not drawn) [Compound 1331] | 3.53^[a] | – |
| CCOC(=O)C(C#N)=C(NC(CC)COC)c1cn(C)nc1C(F)F (stereo not drawn) [Compound 1332] | 2.71^[a] | – |
| CCOC(=O)C(C#N)=C(NC1CCCCC1)c1cn(C)nc1C(F)F [Compound 1333] | 3.29^[a] | – |
| CCOC(=O)C(C#N)=C(NC(CC)CN(C)C)c1cn(C)nc1C(F)F (stereo not drawn) [Compound 1334] | 1.22^[a] | – |
| CCCC(CO)NC(=C(C#N)C(=O)OCC)c1cn(C)nc1C(F)F (stereo not drawn) [Compound 1335] | 2.28^[a] | – |
| CC#CC1(NC(=C(C#N)C(=O)OCC)c2cn(C)nc2C(F)F)CCCCC1 [Compound 1336] | 3.71^[a] | – |
| CCOC(=O)C(C#N)=C(NC1CCC(OCC)CC1)c1cn(C)nc1C(F)F (stereo not drawn) [Compound 1337] | 3.08^[a] | – |
| CCOC(=O)C(C#N)=C(NC(CC)CC)c1cn(C)nc1C(F)F [Compound 1338] | 3.15^[a] | – |
| CCOC(=O)C(C#N)=C(NC1COC1)c1cn(C)nc1C(F)F [Compound 1339] | 1.79^[a] | – |
| CCOC(=O)C(C#N)=C(NCC1(C)CCCO1)c1cn(C)nc1C(F)F (stereo not drawn) [Compound 1340] | 2.54^[a] | – |
| CCOC(=O)C(C#N)=C(NC(COC)COC)c1cn(C)nc1C(F)F [Compound 1341] | 2.42^[a] | – |
| CCOC(=O)C(C#N)=C(NC(CC)CC#N)c1cn(C)nc1C(F)F (stereo not drawn) [Compound 1342] | 2.39^[a] | – |
| CCCC(CC)NC(=C(C#N)C(=O)OCC)c1cn(C)nc1C(F)F (stereo not drawn) [Compound 1343] | 3.51^[a] | – |
| CCOC(=O)C(C#N)=C(NC(C)CC(F)(F)F)c1cn(C)nc1C(F)F (stereo not drawn) [Compound 1346] | 2.77^[a] | – |
| CCOC(=O)C(C#N)=C(NCCOc1ccccc1Br)c1cn(C)nc1C(F)F [Compound 1347] | 3.35^[a] | – |
| CCOC(=O)C(C#N)=C(NCC(C)c1ccccc1Br)c1cn(C)nc1C(F)F (stereo not drawn) [Compound 1348] | 3.69^[a] | – |

| Compound | Log P (pH 2.7) | Log P (pH 7.5) |
| --- | --- | --- |
| CCOC(=O)C(C#N)=C(NC(C(=O)OCC)c1ccccc1)c1cn(C)nc1C(F)F (stereo not drawn) [Compound 1349] | 3.25^[a] | – |
| CCOCC(NC(=C(C#N)C(=O)OCC)c1cn(C)nc1C(F)F)C(C)C (stereo not drawn) [Compound 1350] | 3.39^[a] | – |
| CCOCC(CC)NC(=C(C#N)C(=O)OCC)c1cn(C)nc1C(F)F (stereo not drawn) [Compound 1351] | 3.08^[a] | – |
| CCOC(=O)C(C#N)=C(NC1CCCC1OC)c1cn(C)nc1C(F)F (stereo not drawn) [Compound 1352] | 2.78^[a] | – |
| CCOC(=O)C(C#N)=C(NC1CCCC1OCC)c1cn(C)nc1C(F)F (stereo not drawn) [Compound 1353] | 3.21^[a] | – |
| CCCC(COCC)NC(=C(C#N)C(=O)OCC)c1cn(C)nc1C(F)F (stereo not drawn) [Compound 1354] | 3.44^[a] | – |
| CCOC(=O)C(C#N)=C(NC1CSC1)c1cn(C)nc1C(F)F [Compound 1355] | 2.54^[a] | – |
| CCOC(=O)C(C#N)=C(NC1COC1)c1cccnc1Cl [Compound 1356] | 1.84^[a] | – |
| CCOC(=O)C(C#N)=C(NCC1(C)CCCO1)c1cccnc1Cl (stereo not drawn) [Compound 1357] | 2.7^[a] | – |
| CCOC(=O)C(C#N)=C(NC(COC)COC)c1cccnc1Cl [Compound 1358] | 2.56^[a] | – |
| CCOC(=O)C(C#N)=C(NC(CC)CC#N)c1cccnc1Cl (stereo not drawn) [Compound 1359] | 2.51^[a] | – |
| CCOC(=O)C(C#N)=C(NC1(c2ccc(Cl)cc2)CC1)c1cn(C)nc1C(F)F [Compound 1360] | 3.58^[a] | – |
| CCOC(=O)C(C#N)=C(NC1(c2cccc(Cl)c2)CC1)c1cn(C)nc1C(F)F [Compound 1361] | 3.51^[a] | – |
| CCOC(=O)C(C#N)=C(NC1(c2ccccc2Cl)CC1)c1cn(C)nc1C(F)F [Compound 1362] | 3.35^[a] | – |
| CCOC(=O)C(C#N)=C(NC(c1ccc(Cl)cc1)C1CC1)c1cn(C)nc1C(F)F (stereo not drawn) [Compound 1363] | 3.89^[a] | – |
| CCOC(=O)C(C#N)=C(NC1(c2ccccc2)CC1)c1cn(C)nc1C(F)F [Compound 1364] | 3.21^[a] | – |
| CCOC(=O)C(C#N)=C(NC(C)c1ccccc1C)c1cn(C)nc1C(F)F (stereo not drawn) [Compound 1365] | 3.46^[a] | – |
| CCOC(=O)C(C#N)=C(NC(C)CC(F)(F)F)c1cccnc1Cl (stereo not drawn) [Compound 1366] | 2.92^[a] | – |
| CCOC(=O)C(C#N)=C(NC(CC)COC)c1cccnc1Cl (stereo not drawn) [Compound 1367] | 2.92^[a] | – |
| CCCC(CO)NC(=C(C#N)C(=O)OCC)c1cccnc1Cl (stereo not drawn) [Compound 1368] | 2.45^[a] | – |
| CCOC(=O)C(C#N)=C(NC1CCS(=O)(=O)C1)c1cccnc1Cl (stereo not drawn) [Compound 1369] | 1.84^[a] | – |

| Compound | Log P (pH 2.7) | Log P (pH 7.5) |
| --- | --- | --- |
| CCOC(=O)C(C#N)=C(NC1CCC(OCC)CC1)c1cccnc1Cl (stereo not drawn) [Compound 1370] | 3.31^[a] | – |
| CCOC(=O)C(C#N)=C(NC(CC)CC)c1cccnc1Cl [Compound 1371] | 3.35^[a] | – |
| CCOCC(CC)NC(=C(C#N)C(=O)OCC)c1cccnc1Cl (stereo not drawn) [Compound 1372] | 3.31^[a] | – |
| CCOC(=O)C(C#N)=C(NC1CCCC1OCC)c1cccnc1Cl (stereo not drawn) [Compound 1373] | 3.44^[a] | – |
| CCOC(=O)C(C#N)=C(NC1CSC1)c1cccnc1Cl [Compound 1374] | 2.64^[a] | – |
| CCCC(COC)NC(=C(C#N)C(=O)OCC)c1cccnc1Cl (stereo not drawn) [Compound 1375] | 3.31^[a] | – |
| CCOCC(COCC)NC(=C(C#N)C(=O)OCC)c1cccnc1Cl [Compound 1376] | 3.33^[a] | – |
| CCOC(=O)C(C#N)=C(NCCOc1ccccc1Br)c1cccnc1Cl [Compound 1377] | 3.53^[a] | – |
| CCOC(=O)C(C#N)=C(NCC(C)c1ccccc1Br)c1cccnc1Cl (stereo not drawn) [Compound 1378] | 3.94^[a] | – |
| CCOC(=O)C(C#N)=C(NC(C(=O)OCC)c1ccccc1)c1cccnc1Cl (stereo not drawn) [Compound 1379] | 3.39^[a] | – |
| CCOC(=O)C(C#N)=C(NC(C)c1ccccn1)c1ccc(C)nc1Cl (stereo not drawn) [Compound 1380] | – | 2.67 |
| CCOC(=O)C(C#N)=C(NC(C)c1ccccn1)c1ccc(Cl)nc1Cl (stereo not drawn) [Compound 1381] | – | 3.06 |
| CCCc1nccc(C(NC(C)c2nccs2)=C(C#N)C(=O)OCC)c1Cl (stereo not drawn) [Compound 1382] | 3.27^[a] | – |
| CCOC(=O)C(C#N)=C(NC(C)c1nccs1)c1ccnc(CC)c1Cl (stereo not drawn) [Compound 1383] | 2.92^[a] | – |
| CCOC(=O)C(C#N)=C(NC(C)c1nccs1)c1ccnc(CC(C)C)c1Cl (stereo not drawn) [Compound 1384] | 3.64^[a] | – |
| CCOC(=O)C(C#N)=C(NC(C)c1nccs1)c1ccnc(-c2ccccc2)c1Cl (stereo not drawn) [Compound 1385] | 3.31^[a] | – |
| CCOC(=O)C(C#N)=C(NC(C)C(=O)NC)c1ccnc(Cl)c1Cl (stereo not drawn) [Compound 1387] | 2.1^[a] | – |
| CCOC(=O)C(C#N)=C(Nc1ccccc1SC)c1ccnc(Cl)c1Cl [Compound 1388] | 3.89^[a] | – |
| CCOC(=O)C(C#N)=C(NC(C)COC)c1ccnc(Cl)c1Cl (stereo not drawn) [Compound 1392] | 3.06^[a] | – |
| CCOC(=O)C(C#N)=C(NC(C)C(C)C)c1ccnc(CC)c1Cl (stereo not drawn) [Compound 1399] | 4.02^[a] | – |
| CCCc1nccc(C(NC(C)C(C)C)=C(C#N)C(=O)OCC)c1Cl (stereo not drawn) [Compound 1400] | 4.41^[a] | – |

| Compound | Log P (pH 2.7) | Log P (pH 7.5) |
| --- | --- | --- |
| CCOC(=O)C(C#N)=C(NC(C)C(C)C)c1ccnc(SC)c1Cl (stereo not drawn) [Compound 1401] | 4.44^[a] | – |
| CCOC(=O)C(C#N)=C(NC(C)C(C)C)c1ccnc(CC(C)C)c1Cl (stereo not drawn) [Compound 1402] | 4.81^[a] | – |
| CCOC(=O)C(C#N)=C(NC(C)C(C)C)c1ccnc(-c2ccccc2)c1Cl (stereo not drawn) [Compound 1403] | 4.34^[a] | – |
| CCOC(=O)C(C#N)=C(NC(C)C(C)C)c1ccnc(Cl)c1Br (stereo not drawn) [Compound 1405] | 3.92^[a] | – |
| CCNC(=O)C(C#N)=C(NC(C)C(C)C)c1ccnc(Cl)c1Br (stereo not drawn) [Compound 1408] | 3.53^[a] | – |
| CCOC(=O)C(C#N)=C(NC(C)C(C)C)c1ccnc(Br)c1Br (stereo not drawn) [Compound 1410] | 3.96^[a] | – |
| CCOC(=O)C(C#N)=C(NCc1ncccc1Cl)c1cccnc1Cl [Compound 1412] | 2.78^[a] | – |
| CCOC(=O)C(C#N)=C(NCc1ncccc1Cl)c1cccnc1Cl [Compound 1413] | 2.77^[a] | – |
| CCOC(=O)C(C#N)=C(NC(C)c1nc(C2CC2)cs1)c1cccnc1Cl (stereo not drawn) [Compound 1416] | 3.37^[a] | – |
| CCOC(=O)C(C#N)=C(NC(CC(C)C)C(F)(F)F)c1cn(C)nc1C(F)F (stereo not drawn) [Compound 1417] | 3.8^[a] | – |
| CCOC(=O)C(C#N)=C(NC(C)(C)C)c1cn(C)nc1C(F)F [Compound 1418] | 2.66^[a] | – |
| CCOC(=O)C(C#N)=C(NC(C)C)c1cn(C)nc1C(F)F [Compound 1419] | 2.53^[a] | – |
| CCOC(=O)C(C#N)=C(NC1CCS(=O)(=O)C1)c1cn(C)nc1C(F)F (stereo not drawn) [Compound 1420] | 1.79^[a] | – |
| CCOC(=O)C(C#N)=C(NC(C)(C)CC)c1cn(C)nc1C(F)F [Compound 1421] | 2.96^[a] | – |
| CCOC(=O)C(C#N)=C(NC(C#N)C(C)C)c1cn(C)nc1C(F)F (stereo not drawn) [Compound 1422] | 2.76^[a] | – |
| CCOC(=O)C(C#N)=C(NCC1(C)COC1)c1cn(C)nc1C(F)F [Compound 1423] | 2.04^[a] | – |
| CCCC(NC(=C(C#N)C(=O)OCC)c1cn(C)nc1C(F)F)C(F)(F)F (stereo not drawn) [Compound 1424] | 3.53^[a] | – |
| CCOC(=O)C(C#N)=C(NC(C)(C)CC)c1cccnc1Cl [Compound 1425] | 3.23^[a] | – |
| CCOC(=O)C(C#N)=C(Nc1cc(C(F)(F)F)ccc1SC)c1cn(C)nc1C(F)F [Compound 1426] | 3.67^[a] | – |
| CCOC(=O)C(C#N)=C(Nc1ccccc1C(O)(C(F)(F)F)C(F)(F)F)c1cn(C)nc1C(F)F [Compound 1427] | 3.25^[a] | – |
| CCOC(=O)C(C#N)=C(NC(CC(F)(F)F)c1ccccc1)c1cn(C)nc1C(F)F (stereo not drawn) [Compound 1428] | 3.37^[a] | – |
